Results from US20020025940A1, “Methods and compositions for sensitive and rapid, functional identification of genomic polynucleotides and use for cellular assays in drug discovery” (Aurora Biosciences Corporation, priority 1997, published 2002).
Where two headings read alike, the source gives them in different places.

Legend:
Jurkat cells = test: Proliferation assay (MTT), Jurkat cells; format: cell-based, human; conditions: concentrations up to 10 microM, five days
Method: (§1) Chemicals A and B were further tested for their anti-proliferative effect on Jurkat cells and mouse L-cells (mouse fibroblast cell line). […] Proliferation assays were performed by seeding about 20,000 cells unactivated by PHA into a 24 well plate. These cells were contacted with chemicals and were then incubated at 37° C. for five days. The cells were contacted with 10 micrograms/ml of MTT (Sigma Chemical Co., MO) for three hours. The cells were then collected, resuspended in isopropanol, and the absorbance was read in a plate reader at a wavelength of 570 nm with a background subtraction at a reading at a wavelength of 690 nm (see, Carmichael et al., Cancer Res. 47:936 (1987)).

[1] = test system: mouse L-cells (mouse fibroblast cell line); test: Proliferation assay (MTT), mouse L-cells; format: cell-based; conditions: concentrations up to 10 microM, five days
Method: as §1

[2] = test system: T-cell receptor pathway (clone J32-6D4)
Text: Thus, this clone was used to identify chemicals that inhibit this T-cell receptor pathway that is also stimulated by the PKC activator PMA.

[3] = test system: BLEC integrated RBL-1 cell clones; test: FACS of BLEC-1 integrated RBL-1 clones after ionomycin stimulation (CCF2/AM blue/green); format: cell-based, rat
Method: This library of BLEC-1 integrated clones was loaded with the fluorescent substrate of BL (CCF-2-AM) by adding 10 microM CCF-2-AM in HBSS containing […] at pH 7.1 and 1% glucose. After a 1 hour incubation at 22° C. cells were washed with HBSS and viewed upon excitation with 400 nm light using a 435 nm long pass emission filter. Under these assay conditions 10% of the cells were blue fluorescent indicating they were expressing beta-lactamase.
Fluorescent activated cell sorting of multi-clonal populations of RBL-1 gene integrated clones was used to identify clones with regulated BL gene expression. A BL non-expressing population of cells was isolated by sorting a library of BLEC-1 integrated clones generated by transfection of RBL-1 cells as described in Example 2. 180,000 clones expressing little or no BL were isolated by sorting for clones with a low blue/green ratio (R1 population), as shown in FIG. 4A. This population of clones was grown for seven days and resorted by FACS to test the population's fluorescent properties. […] It is also clear that the total population has shifted towards more green cells compared to the parent population, as shown in FIG. 4A. There are, however, cells with a high blue/green ratio showing up in the green sorted population. These may represent clones in which the BLEC has integrated into a differentially regulated gene such as a gene whose expression changes throughout the cell cycle.
The population of RBL-1 clones shown in FIG. 4B was stimulated by addition of 1 uM ionomycin for 6 hours and resorted to identify clones which had the BLEC integrated into a gene which is inducible by increasing intracellular calcium. A greater percentage of blue clones were present in all three of the blue sub-population (R4, R2, R5) in the ionomycin stimulated when compared to the unstimulated population.

[4] = 10 microM chemical, 1 microgram/ml of PHA for 18 hours

O=C(O)/C=C/c1ccc2ccccc2n1 [chemical B]
anti-proliferative effect on Jurkats (Jurkat cells): no anti-proliferative effect | anti-proliferative effect on L-cells [1]: no anti-proliferative effect | IC50 ([2]; Homo sapiens, T-cell, read-out: IC50 of the inhibition of PHA activation of beta-lactamase expression): ~200 nM

C[C@H](CCC(=O)O)C[C@H](C)C[C@H](C)C(=O)/C=C(\O)[C@H](C)C[C@H](C)C/C=C/[C@@H](C)[C@@H](O)[C@@H](C)[C@@H](O)C[C@@H]1CC[C@@](C)([C@H]2CC[C@@](C)([C@@H](C)O)O2)O1 [Ionomycin, ionomycin]
Ratio +Ion/−Ion, sort window R4 (blue) ([3]; 1 uM ionomycin vs unstimulated): 2.2 | Ratio +Ion/−Ion, sort window R5 ([3]; 1 uM ionomycin vs unstimulated): 1.6 | Ratio +Ion/−Ion, sort window R6 (green) ([3]; 1 uM ionomycin vs unstimulated): .9 | Stimulated % of cells in sort window R4 (blue) ([3]; 1 uM ionomycin, 6 hours, R4 highest blue/green ratio): .24% | Stimulated % of cells in sort window R5 ([3]; 1 uM ionomycin, 6 hours, R5 lower blue/green ratio): 2.5% | Stimulated % of cells in sort window R6 (green) ([3]; 1 uM ionomycin, 6 hours, R6 green): 61.64%

C[C@H]1O[C@@H](O[C@H]2[C@@H](O)C[C@H](O[C@H]3[C@@H](O)C[C@H](O[C@H]4CC[C@@]5(C)[C@H](CC[C@@H]6[C@@H]5C[C@@H](O)[C@]5(C)[C@@H](C7=CC(=O)OC7)CC[C@]65O)C4)O[C@@H]3C)O[C@@H]2C)C[C@H](O)[C@@H]1O [Digoxin]
% Inhibition of PHA activation of Clone J32-6D4 [2]: 86%

C[C@H]1O[C@@H](O[C@H]2[C@@H](O)C[C@H](O[C@H]3[C@@H](O)C[C@H](O[C@H]4CC[C@@]5(C)[C@H](CC[C@@H]6[C@@H]5CC[C@]5(C)[C@@H](C7=CC(=O)OC7)CC[C@]65O)C4)O[C@@H]3C)O[C@@H]2C)C[C@H](O)[C@@H]1O [Digitoxin]
% Inhibition of PHA activation of Clone J32-6D4 [2, 4]: 77%

CCCCC1C(=O)N(c2ccccc2)N(c2ccc(O)cc2)C1=O (stereo not shown) [Oxyphenbutazone]
% Inhibition of PHA activation of Clone J32-6D4 [2, 4]: 75%

C[C@@H]1O[C@@H](O[C@H]2C[C@@H](O)[C@]3(CO)[C@H]4[C@H](O)C[C@]5(C)[C@@H](C6=CC(=O)OC6)CC[C@]5(O)[C@@H]4CC[C@]3(O)C2)[C@H](O)[C@H](O)[C@H]1O [Quabain]
% Inhibition of PHA activation of Clone J32-6D4 [2, 4]: 50%

Nc1nc2nc[nH]c2c(=S)[nH]1 [Thioguanine]
% Inhibition of PHA activation of Clone J32-6D4 [2, 4]: 50%

[O-][n+]1ccccc1SSc1cccc[n+]1[O-] [Dipyrithione]
% Inhibition of PHA activation of Clone J32-6D4 [2, 4]: 70%

CN(C)c1ccc(C(=C2C=CC(=[N+](C)C)C=C2)c2ccc(N(C)C)cc2)cc1 [Gentian Violet]
% Inhibition of PHA activation of Clone J32-6D4 [2, 4]: 73%
